Assay results reported in PMC12116762, “Topobexin targets the Topoisomerase II ATPase domain for beta isoform-selective inhibition and anthracycline cardioprotection” (Nature Communications, 2025).

Columns and labels:
[1] = test system: neonatal rat ventricular cardiomyocytes (NVCM); test: Protection against DAU-induced cytotoxicity (LDH release) in NVCM; format: cell-based; set-up: key to Suppl.Fig.3 DAU-induced cytotoxicity (LDH release) in NVCM, mean of independent replicates / LDH release (DAU-induced cytotoxicity), mean of independent replicates: % of total LDH activity; settings: for minimal effective concentration: Rattus norvegicus, Cardiomyocyte, NVCM, protection against DAU 1.2 µM, n=4, read-out: LEC = lowest effective concentration
Protocol: (§1) The protective effects of the BNS-22 and newly prepared compounds were evaluated using primary cultures of neonatal rat cardiomyocytes isolated in house as previously described. Hearts isolated from 1- to 3-day-old Wistar rats were minced in buffer (1.2 mM MgSO4 · 7H2O, 116 mM NaCl, 5.3 mM KCl, 1.13 mM NaH2PO4 · H2O, 20 mM 4-(2-hydroxyethyl)-1-piperazine ethanesulfonic acid (HEPES), glucose 1 mg/mL) on ice, then serially digested (20 min, six repetitions) at 37 °C with collagenase type II (60 U/mL, Gibco). After 2 h pre-plating in a 150 mm Petri dish per approximately 20 hearts to minimize non-myocyte contamination, cells were plated in 24-well gelatin-coated plates at a density of 400,000 cells per well. Cells were cultured at 37 °C and 5% CO2 in Dulbecco’s modified Eagle medium (DMEM)/ F12 culture medium supplemented with 10% horse serum, 5% fetal bovine serum (FBS), 20 mM sodium pyruvate, 50 U/mL penicillin, and 50 μg/mL streptomycin. Freshly isolated cells were left for 40 h to attach and form a culture of spontaneously beating cardiomyocytes, then the medium was changed to DMEM/F12 medium supplemented with 5% fetal bovine serum, 20 mM sodium pyruvate, 50 U/mL penicillin, and 50 μg/mL streptomycin. For the experiments, the medium was changed to serum- and pyruvate-free DMEM/F12 with 50 U/mL penicillin and 50 μg/mL streptomycin. Cardiomyocytes were pretreated with BNS-22 or new compounds for 3 h and then coincubated with DAU (1.2 µM) for another 3 h. After the DAU treatment period, the culture medium was exchanged for the drug-free DMEM/F12 with 50 U/mL penicillin and 50 μg/mL streptomycin for the 48 h follow-up. Experiments to determine the inherent toxicity of each compound studied follow the same schedule, only no DAU was added. Subsequently, the culture medium sample was taken from each well for evaluation of lactate dehydrogenase (LDH) activity. The total LDH activity of each sample for normalization was measured after 1 h of incubation at 37 °C in lysis buffer (0.1 M potassium phosphate, 1% Triton X-100, 1 mM dithiothreitol (DTT), 2 mM EDTA, pH 7.8, 15 min in RT). All samples were immediately analyzed in Tris HCl buffer (pH 8.9) containing 35 mM lactic acid and 5 mM NAD^+. The rate of NAD^+ reduction was monitored spectrophotometrically at 340 nm for 2 min. The slope of the linear region was calculated, and the results were expressed as a percentage of the total LDH. Each presented data point was obtained from distinct sample.

[2] = test system: neonatal rat ventricular cardiomyocytes (NVCM); test: Inherent toxicity (LDH release) in NVCM; format: cell-based; set-up: key to LDH release (inherent toxicity), mean of independent replicates: % of total LDH activity; settings: NVCM; for LTC = lowest toxic concentration: compound alone, n=4; for LDH release (inherent toxicity), mean of independent replicates: Suppl.Fig.4
Protocol: as §1

Row | Compound | minimal effective concentration [1] [µM] | Suppl.Fig.3 DAU-induced cytotoxicity (LDH release) in NVCM, mean of independent replicates ([1]; compound 0.1 µM + DAU 1.2 µM) | Suppl.Fig.3 DAU-induced cytotoxicity (LDH release) in NVCM, mean of independent replicates ([1]; compound 1 µM + DAU 1.2 µM) | Suppl.Fig.3 DAU-induced cytotoxicity (LDH release) in NVCM, mean of independent replicates ([1]; compound 10 µM + DAU 1.2 µM) | Suppl.Fig.3 DAU-induced cytotoxicity (LDH release) in NVCM, mean of independent replicates ([1]; compound 30 µM + DAU 1.2 µM) | Suppl.Fig.3 DAU-induced cytotoxicity (LDH release) in NVCM, mean of independent replicates ([1]; compound 100 µM + DAU 1.2 µM) | LTC = lowest toxic concentration [2] [µM] | LDH release (inherent toxicity), mean of independent replicates ([2]; compound alone 0.1 µM) | LDH release (inherent toxicity), mean of independent replicates ([2]; compound alone 1 µM) | LDH release (inherent toxicity), mean of independent replicates ([2]; compound alone 10 µM) | LDH release (inherent toxicity), mean of independent replicates ([2]; compound alone 30 µM) | LDH release (inherent toxicity), mean of independent replicates ([2]; compound alone 100 µM) | Suppl.Fig.3 DAU-induced cytotoxicity (LDH release) in NVCM, mean of independent replicates ([1]; compound 3 µM + DAU 1.2 µM) | LDH release (inherent toxicity), mean of independent replicates ([2]; compound alone 3 µM) | Suppl.Fig.3 DAU-induced cytotoxicity (LDH release) in NVCM, mean of independent replicates ([1]; compound 0.01 µM + DAU 1.2 µM) | LDH release (inherent toxicity), mean of independent replicates ([2]; compound alone 0.01 µM)
1 | CCCCc1cc(=O)oc2c(C(=O)N3CCCc4ccccc43)c(OC)cc(OC)c12 [1d] | 1 | 44.1431 | 30.0603 | 34.1459 | 74.3781 | 88.2455 | 30 | 14.3468 | 13.6854 | 20.4098 | 50.8474 | 76.157 |  |  |  | 
2 | Cc1cc(=O)oc2c(C(=O)N3CCCc4ccccc43)c(O)ccc12 [2a] |  |  |  | 37.2223 | 39.137 | 42.8636 |  |  |  | 13.7502 | 15.9605 | 17.1189 |  |  |  | 
3 | CCc1cc(=O)oc2c(C(=O)N3CCCc4ccccc43)c(O)ccc12 [2b] |  |  |  | 31.7392 | 34.9042 | 31.3386 |  |  |  | 17.3516 | 18.0926 | 18.5764 |  |  |  | 
4 | COc1ccc2c(C)cc(=O)oc2c1C(=O)N1CCCc2ccccc21 [3a] |  |  | 38.7802 | 36.7927 |  |  | > 10 |  | 18.1168 | 15.937 |  |  | 37.7536 | 15.6047 |  | 
5 | CCc1cc(=O)oc2c(C(=O)N3CCCc4ccccc43)c(OC)ccc12 [3b] |  |  | 33.4469 | 31.9857 |  |  | > 10 |  | 16.0681 | 15.3649 |  |  | 35.1015 | 15.619 |  | 
6 | CCCCc1cc(=O)oc2c(C(=O)N3CCCc4ccccc43)c(OC)ccc12 [3d] | 1 | 40.2805 | 35.9225 | 25.0218 | 30.6397 |  | > 30 | 14.1948 | 16.3261 | 19.5649 | 19.0356 |  |  |  | 50.7769 | 14.5175
7 | CCCOc1ccc2c(C)cc(=O)oc2c1C(=O)N1CCCc2ccccc21 [4a] | 10 | 45.8753 | 42.086 | 32.6284 | 30.3987 |  | > 30 | 13.7469 | 13.1211 | 16.3565 | 19.993 |  |  |  |  | 
8 | CCCOc1ccc2c(CC)cc(=O)oc2c1C(=O)N1CCCc2ccccc21 [4b] | 0.1 | 43.0735 | 30.3899 | 27.961 | 25.8835 | 28.6308 |  | 14.2064 | 13.8348 | 17.7301 | 17.7791 | 17.3487 |  |  | 47.614 | 14.7625
9 | CCCCc1cc(=O)oc2c(C(=O)N3CCCc4ccccc43)c(OCCC)ccc12 [4d] | 1 | 31.1377 | 25.022 | 40.2951 | 73.3675 | 78.9691 | 10 | 15.2686 | 16.9179 | 31.7424 | 60.5761 | 70.9323 |  |  | 36.4234 | 17.8445
10 | Cc1cc(=O)oc2c(C(=O)N3CCCc4ccccc43)c(OCCO)ccc12 [5a] | 30 |  | 47.2456 | 46.8582 | 41.4003 | 38.7405 |  |  | 12.9508 | 15.8869 | 14.1719 | 15.685 |  |  |  | 
11 | CCCCc1cc(=O)oc2c(C(=O)N3CCCc4ccccc43)c(OCCO)ccc12 [5d] |  | 41.2776 | 35.4099 | 33.3492 | 35.9089 | 42.7736 |  | 15.5556 | 15.5462 | 19.8205 | 25.0146 | 27.0966 |  |  | 44.6742 | 16.4804
